Assay results from ChEMBL document CHEMBL4480380, “Identification and biological evaluation of novel benzothiazole derivatives bearing a pyridine-semicarbazone moiety as apoptosis inducers via activation of procaspase-3 to caspase-3” (Medchemcomm, 2019).
Activity calls are given as the source filed them. The rule behind the calls is not given here.

Experiments:
U-937 [1] = assay: Induction of apoptosis in human U937 cells assessed as caspase-3 activity at 30 uM using Ac-DEVD-AFC as substrate preincubated for 16 hrs followed by substrate addition and measured after 60 mins by fluorescence assay (reference value: 7+/- 1%); format: functional
Danio rerio [2] = species: Danio rerio; assay: Induction of apoptosis in zebrafish AB embryos assessed as increase in bax mRNA expression at 40 to 60 uM after 24 hrs post fertilization by RT-PCR analysis; format: functional, organism-based
U-937 [3] = assay: Induction of apoptosis in human U937 cells assessed as early apoptotic cells at 6.6 uM after 24 hrs by Annexin V-FITC/propidium iodide staining-based flow cytometric analysis (reference value: 4.88%); format: functional
[4] = Toxicity in zebrafish AB embryos at 40 uM after 48 hrs post fertilization by stereo microscopic analysis; set-up: species or system Danio rerio; conditions: in vivo
U-937 [5] = assay: Induction of apoptosis in human U937 cells assessed as early apoptotic cells at 3.3 uM after 24 hrs by Annexin V-FITC/propidium iodide staining-based flow cytometric analysis (reference value: 4.88%); format: functional
[6] = Toxicity in zebrafish AB embryos at 5 to 20 uM measured at 24 to 72 hrs post fertilization by stereo microscopic analysis; set-up: species or system Danio rerio; conditions: in vivo
[7] = Half life in rat liver microsomes in presence of NADPH by LC-MS analysis; format: ADME, Microsome
Caspase-3 (Homo sapiens) = biological target: T1, Caspase-3 (Homo sapiens) (UniProt P42574); assay: Activation of procaspase-3 (unknown origin) at 10 uM using Ac-DEVD-AFC as substrate preincubated for 4 hrs followed by substrate addition and measured after 5 mins by fluorescence assay relative to control
T1 sequence (whole entry): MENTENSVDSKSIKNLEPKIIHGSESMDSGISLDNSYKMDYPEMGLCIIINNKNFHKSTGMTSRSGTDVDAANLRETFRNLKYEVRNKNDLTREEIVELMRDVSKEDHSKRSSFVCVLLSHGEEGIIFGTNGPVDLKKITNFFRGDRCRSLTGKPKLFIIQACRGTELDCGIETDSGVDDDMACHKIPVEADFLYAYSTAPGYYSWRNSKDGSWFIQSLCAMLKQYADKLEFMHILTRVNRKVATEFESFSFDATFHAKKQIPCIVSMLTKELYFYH

U-937 [8] = assay: Induction of apoptosis in human U937 cells assessed as late apoptotic cells at 6.6 uM after 24 hrs by Annexin V-FITC/propidium iodide staining-based flow cytometric analysis (reference value: 3.27%); format: functional
[9] = Intrinsic clearance in rat liver microsomes in presence of NADPH by LC-MS analysis; format: ADME, Microsome; conditions: read-out: CLH
[10] = Half life in mouse liver microsomes in presence of NADPH by LC-MS analysis; format: ADME, Microsome
Danio rerio [11] = species: Danio rerio; assay: Induction of apoptosis in zebrafish AB embryos assessed as accumulation of dying cells in cranial neural crest at 40 to 60 uM after 24 hrs post fertilization by acridine orange staining-based fluorescence microscopic analysis; format: functional, organism-based
[12] = Selectivity ratio of IC50 for human MCF7 cells to IC50 for human procaspase-3 over-expressing U937 cells; format: functional
U-937 [13] = assay: Induction of apoptosis in human U937 cells assessed as late apoptotic cells at 3.3 uM after 24 hrs by Annexin V-FITC/propidium iodide staining-based flow cytometric analysis (reference value: 3.27%); format: functional
U-937 [14] = assay: Antiproliferative activity against human procaspase-3 over-expressing U937 cells after 24 hrs by CCK-8 assay; format: functional, cell-based; conditions: U-937, 24 h
U-937 [15] = assay: Induction of apoptosis in human U937 cells assessed as late apoptotic cells at 3.3 uM after 48 hrs by Annexin V-FITC/propidium iodide staining-based flow cytometric analysis (reference value: 3.89%); format: functional
Danio rerio [16] = species: Danio rerio; assay: Induction of apoptosis in zebrafish AB embryos assessed as accumulation of dying cells in head at 40 to 60 uM after 24 hrs post fertilization by acridine orange staining-based fluorescence microscopic analysis; format: functional, organism-based
U-937 [17] = assay: Induction of apoptosis in human U937 cells assessed as early apoptotic cells at 3.3 uM after 48 hrs by Annexin V-FITC/propidium iodide staining-based flow cytometric analysis (reference value: 6.16%); format: functional
[18] = Toxicity in zebrafish AB embryos assessed as induction of mortality at 40 uM after 72 hrs post fertilization by stereo microscopic analysis; set-up: species or system Danio rerio; conditions: in vivo
[19] = Intrinsic clearance in mouse liver microsomes in presence of NADPH by LC-MS analysis; format: ADME, Microsome; conditions: read-out: CLH
MCF7 = assay: Antiproliferative activity against human MCF7 cells after 24 hrs by CCK-8 assay; format: functional, cell-based; conditions: MCF7, 24 h
[20] = Half life in human liver microsomes in presence of NADPH by LC-MS analysis; format: ADME, Microsome
U-937 [21] = assay: Induction of apoptosis in human U937 cells assessed as early apoptotic cells at 6.6 uM after 48 hrs by Annexin V-FITC/propidium iodide staining-based flow cytometric analysis (reference value: 6.16%); format: functional
[22] = Intrinsic clearance in human liver microsomes in presence of NADPH by LC-MS analysis; format: ADME, Microsome; conditions: read-out: CLH
U-937 [23] = assay: Induction of apoptosis in human U937 cells assessed as late apoptotic cells at 6.6 uM after 48 hrs by Annexin V-FITC/propidium iodide staining-based flow cytometric analysis (reference value: 3.89%); format: functional

CC1CCN(Cc2ccc3nc(NC(=O)NN=C(c4ccccn4)c4ccccn4)sc3c2)CC1
Activity (U-937 [1]): 114% | Activity (Danio rerio [2]): Active | Activity (U-937 [3]): 19.27% | Activity [4]: Toxic | Activity (U-937 [5]): 15.85% | Activity [6]: Non-Toxic | half-life [7]: 1.23 h | Activity (Caspase-3 (Homo sapiens)): 92.1% | Activity (U-937 [8]): 8.5% | CLint scaled [9]: 33.6 mL/min/kg | half-life [10]: 0.279 h | Activity (Danio rerio [11]): Active | Ratio IC50 [12]: 6 | Activity (U-937 [13]): 6.75% | IC50 (U-937 [14]): 6.6 µM | Activity (U-937 [15]): 9.86% | Activity (Danio rerio [16]): Active | Activity (U-937 [17]): 20.55% | Activity [18]: Toxic | CLint scaled [19]: 326 mL/min/kg | IC50 (MCF7): > 40 µM | half-life [20]: 1.32 h | Activity (U-937 [21]): 26.89% | CLint scaled [22]: 22 mL/min/kg | Activity (U-937 [23]): 17.66%
